Reference: PubChem BioAssay (NCI)
“And” between values parts separate entries of the source, which are not always exact repeats. Identical values can stand only once.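 Protocol summary: plate cells (96-well), add compound at 5 concentrations, incubate 48 h, interpolate endpoints linearly. GI50 is the concentration that inhibits growth by half. TGI denotes the concentration required for complete inhibition of growth.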

test system: SK-MEL-5 melanoma; assay: NCI-60 cell line screen, 48 h

Compound | TGI [µM]
O=C1C2=C(SCCS2)C(=O)c2ccccc21 | 3.09
c1cc2c(cc1NC1=NCCO1)CCC2 | > 10

test system: HCT-15 colon; assay: NCI-60 cell line screen, 48 h

Compound | TGI [µM] | GI50
COc1ccc2nc3cc(Cl)ccc3c(Sc3ccccc3[N+](=O)[O-])c2c1 | > 100 | –
C/C(CCn1[nH]c(=O)ccc1=O)=N\O | > 100 | –
CC1(C)COC(c2ccc(C(F)(F)F)cc2C(O)c2ccc3ccccc3c2)=N1 (centres undefined) | > 100 | > 100 µM
COc1ccc(NC(=O)c2cc(OC)cc(OC)c2)cc1 | > 100 | –
CC1(C)OC(=O)C(=Cc2ccc(O)cc2)C(=O)O1 | > 100 | –
COc1ccc(C2=CSc3cc(Cl)c(C)cc3S(=O)(=O)N2C(C)=O)cc1 | 88.5 | 24.6 µM
COc1ccc(/C=C\c2cc(OC)c3c(c2)OCO3)c(O)c1O | 59.8 | –
CC[C@@]12CCCN3CC[C@]4(c5cccc(OC)c5N(C(C)=O)[C@@H]4CC1)[C@H]32 | > 100 | –
NC1CCC(Nc2nc(NCc3ccc(-c4ccco4)nc3)c3ncn(C4CCCC4)c3n2)CC1 (centres undefined) | 7.81 | 0.298 µM and 1.27 µM
CCCCCCCCSC1=CC(=O)c2nc3ccccc3c3ccnc1c23 | > 100 | 38.4 µM
Cc1ccc(-c2nnc(-c3ccc4ccccc4c3)o2)cc1 | > 100 | –
COc1ccc(-c2cc(-c3ccc(Nc4nc(Nc5ccccc5)nc(Nc5ccc(Cl)cc5)n4)cc3)nc(N)c2C#N)cc1 | 3.68 | 1.2 µM
O=c1n(CC2CO2)c(=O)n(CC2CO2)n1CC1CO1 (centres undefined) | 44.3 | 11.1 µM
O=C1C2=C(SCCS2)C(=O)c2ccccc21 | 3.08 | –
c1cc2c(cc1NC1=NCCO1)CCC2 | > 10 | –

test system: MOLT-4 leukemia; assay: NCI-60 cell line screen, 48 h

Compound | TGI [µM] | GI50 [µM]
COc1ccc2nc3cc(Cl)ccc3c(Sc3ccccc3[N+](=O)[O-])c2c1 | > 100 | –
C/C(CCn1[nH]c(=O)ccc1=O)=N\O | > 100 | –
CC1(C)COC(c2ccc(C(F)(F)F)cc2C(O)c2ccc3ccccc3c2)=N1 (centres undefined) | > 100 | > 100
COc1ccc(NC(=O)c2cc(OC)cc(OC)c2)cc1 | > 100 | –
CC1(C)OC(=O)C(=Cc2ccc(O)cc2)C(=O)O1 | > 100 | –
COc1ccc(C2=CSc3cc(Cl)c(C)cc3S(=O)(=O)N2C(C)=O)cc1 | > 100 | 2.13
COc1ccc(/C=C\c2cc(OC)c3c(c2)OCO3)c(O)c1O | 47.5 | –
CC[C@@]12CCCN3CC[C@]4(c5cccc(OC)c5N(C(C)=O)[C@@H]4CC1)[C@H]32 | 61.3 | –
NC1CCC(Nc2nc(NCc3ccc(-c4ccco4)nc3)c3ncn(C4CCCC4)c3n2)CC1 (centres undefined) | – | 0.0222
CCCCCCCCSC1=CC(=O)c2nc3ccccc3c3ccnc1c23 | > 100 | 6.03
Cc1ccc(-c2nnc(-c3ccc4ccccc4c3)o2)cc1 | > 26.6 | –
COc1ccc(-c2cc(-c3ccc(Nc4nc(Nc5ccccc5)nc(Nc5ccc(Cl)cc5)n4)cc3)nc(N)c2C#N)cc1 | > 50 | 0.958
O=c1n(CC2CO2)c(=O)n(CC2CO2)n1CC1CO1 (centres undefined) | > 100 | 4.46
O=C1C2=C(SCCS2)C(=O)c2ccccc21 | 27.7 | –
c1cc2c(cc1NC1=NCCO1)CCC2 | > 10 | –

test system: SK-MEL-2 melanoma; assay: NCI-60 cell line screen, 48 h

Compound | TGI [µM] | GI50 [µM]
COc1ccc2nc3cc(Cl)ccc3c(Sc3ccccc3[N+](=O)[O-])c2c1 | > 100 | –
C/C(CCn1[nH]c(=O)ccc1=O)=N\O | > 100 | –
CC1(C)COC(c2ccc(C(F)(F)F)cc2C(O)c2ccc3ccccc3c2)=N1 (centres undefined) | > 100 | > 100
COc1ccc(NC(=O)c2cc(OC)cc(OC)c2)cc1 | > 100 | –
CC1(C)OC(=O)C(=Cc2ccc(O)cc2)C(=O)O1 | > 100 | –
COc1ccc(C2=CSc3cc(Cl)c(C)cc3S(=O)(=O)N2C(C)=O)cc1 | > 100 | 63.4
COc1ccc(/C=C\c2cc(OC)c3c(c2)OCO3)c(O)c1O | 42.6 | –
CC[C@@]12CCCN3CC[C@]4(c5cccc(OC)c5N(C(C)=O)[C@@H]4CC1)[C@H]32 | > 100 | –
NC1CCC(Nc2nc(NCc3ccc(-c4ccco4)nc3)c3ncn(C4CCCC4)c3n2)CC1 (centres undefined) | 0.145 | 0.034
CCCCCCCCSC1=CC(=O)c2nc3ccccc3c3ccnc1c23 | > 100 | > 100
Cc1ccc(-c2nnc(-c3ccc4ccccc4c3)o2)cc1 | > 32.6 | –
COc1ccc(-c2cc(-c3ccc(Nc4nc(Nc5ccccc5)nc(Nc5ccc(Cl)cc5)n4)cc3)nc(N)c2C#N)cc1 | 2.66 | 1.09
O=c1n(CC2CO2)c(=O)n(CC2CO2)n1CC1CO1 (centres undefined) | > 100 | > 73.5
O=C1C2=C(SCCS2)C(=O)c2ccccc21 | 4.07 | –
c1cc2c(cc1NC1=NCCO1)CCC2 | > 10 | –

test system: SNB-19 CNS; assay: NCI-60 cell line screen, 48 h

Compound | TGI [µM] | GI50 [µM]
COc1ccc2nc3cc(Cl)ccc3c(Sc3ccccc3[N+](=O)[O-])c2c1 | > 100 | –
C/C(CCn1[nH]c(=O)ccc1=O)=N\O | > 100 | –
CC1(C)COC(c2ccc(C(F)(F)F)cc2C(O)c2ccc3ccccc3c2)=N1 (centres undefined) | > 100 | > 10
COc1ccc(NC(=O)c2cc(OC)cc(OC)c2)cc1 | > 100 | –
CC1(C)OC(=O)C(=Cc2ccc(O)cc2)C(=O)O1 | > 100 | –
COc1ccc(C2=CSc3cc(Cl)c(C)cc3S(=O)(=O)N2C(C)=O)cc1 | > 100 | 36.3
COc1ccc(/C=C\c2cc(OC)c3c(c2)OCO3)c(O)c1O | 23.6 | –
CC[C@@]12CCCN3CC[C@]4(c5cccc(OC)c5N(C(C)=O)[C@@H]4CC1)[C@H]32 | > 100 | –
NC1CCC(Nc2nc(NCc3ccc(-c4ccco4)nc3)c3ncn(C4CCCC4)c3n2)CC1 (centres undefined) | 12.5 | 0.0275
CCCCCCCCSC1=CC(=O)c2nc3ccccc3c3ccnc1c23 | > 100 | > 100
Cc1ccc(-c2nnc(-c3ccc4ccccc4c3)o2)cc1 | > 100 | –
COc1ccc(-c2cc(-c3ccc(Nc4nc(Nc5ccccc5)nc(Nc5ccc(Cl)cc5)n4)cc3)nc(N)c2C#N)cc1 | > 50 | > 24.8
O=c1n(CC2CO2)c(=O)n(CC2CO2)n1CC1CO1 (centres undefined) | > 100 | 14.2
O=C1C2=C(SCCS2)C(=O)c2ccccc21 | 2.87 | –
c1cc2c(cc1NC1=NCCO1)CCC2 | 7.72 | –

test system: SR leukemia; assay: NCI-60 cell line screen, 48 h

Compound | TGI [µM] | GI50 [µM]
COc1ccc2nc3cc(Cl)ccc3c(Sc3ccccc3[N+](=O)[O-])c2c1 | > 100 | –
C/C(CCn1[nH]c(=O)ccc1=O)=N\O | > 100 | –
CC1(C)COC(c2ccc(C(F)(F)F)cc2C(O)c2ccc3ccccc3c2)=N1 (centres undefined) | > 10 | –
COc1ccc(NC(=O)c2cc(OC)cc(OC)c2)cc1 | > 100 | –
CC1(C)OC(=O)C(=Cc2ccc(O)cc2)C(=O)O1 | > 100 | –
COc1ccc(C2=CSc3cc(Cl)c(C)cc3S(=O)(=O)N2C(C)=O)cc1 | > 100 | 14.6
COc1ccc(/C=C\c2cc(OC)c3c(c2)OCO3)c(O)c1O | > 41.5 | –
CC[C@@]12CCCN3CC[C@]4(c5cccc(OC)c5N(C(C)=O)[C@@H]4CC1)[C@H]32 | 55.9 | –
NC1CCC(Nc2nc(NCc3ccc(-c4ccco4)nc3)c3ncn(C4CCCC4)c3n2)CC1 (centres undefined) | 0.19 | 0.0349
CCCCCCCCSC1=CC(=O)c2nc3ccccc3c3ccnc1c23 | > 100 | 22.7
Cc1ccc(-c2nnc(-c3ccc4ccccc4c3)o2)cc1 | > 68.4 | –
COc1ccc(-c2cc(-c3ccc(Nc4nc(Nc5ccccc5)nc(Nc5ccc(Cl)cc5)n4)cc3)nc(N)c2C#N)cc1 | 2.94 | 0.582
O=c1n(CC2CO2)c(=O)n(CC2CO2)n1CC1CO1 (centres undefined) | > 100 | –
O=C1C2=C(SCCS2)C(=O)c2ccccc21 | 5.33 | –
c1cc2c(cc1NC1=NCCO1)CCC2 | > 10 | –
